± gives the expanded uncertainty stated by the source.
Experiments:
[1] = for vapor or sublimation pressure: Twin ebulliometer; for Triple point temperature: Adiabatic calorimetry
[2] = Molar enthalpy of transition or fusion; conditions: Adiabatic calorimetry
[3] = molar heat capacity at saturation pressure; conditions: Crystal 3, Vacuum adiabatic calorimetry

For `C1CCC(C2CCCC2)C1` [1,1'-bicyclopentyl], the “vapor or sublimation pressure” value ([1]; 384 K, Liquid) was 9.59 ± 0.013 kPa, the “vapor or sublimation pressure” value ([1]; 387.47 K, Liquid) was 10.89 ± 0.013 kPa and the “vapor or sublimation pressure” value ([1]; 390.95 K, Liquid) was 12.35 ± 0.014 kPa. For the same compound, the “vapor or sublimation pressure” value ([1]; 394.45 K, Liquid) was 13.96 ± 0.014 kPa, the “vapor or sublimation pressure” value ([1]; 397.96 K, Liquid) was 15.75 ± 0.015 kPa and the “vapor or sublimation pressure” value ([1]; 401.49 K, Liquid) was 17.74 ± 0.016 kPa. For the same compound, the “vapor or sublimation pressure” value ([1]; 405.02 K, Liquid) was 19.93 ± 0.018 kPa, the “vapor or sublimation pressure” value ([1]; 405.03 K, Liquid) was 19.93 ± 0.018 kPa and the “vapor or sublimation pressure” value ([1]; 412.15 K, Liquid) was 25.02 ± 0.019 kPa. For the same compound, the “vapor or sublimation pressure” value ([1]; 419.33 K, Liquid) was 31.18 ± 0.022 kPa, the “vapor or sublimation pressure” value ([1]; 426.57 K, Liquid) was 38.56 ± 0.025 kPa and the “vapor or sublimation pressure” value ([1]; 433.87 K, Liquid) was 47.38 ± 0.029 kPa. The “vapor or sublimation pressure” value ([1]; 441.22 K, Liquid) was 57.82 ± 0.034 kPa, the “vapor or sublimation pressure” value ([1]; 448.61 K, Liquid) was 70.12 ± 0.039 kPa and the “vapor or sublimation pressure” value ([1]; 456.08 K, Liquid) was 84.53 ± 0.044 kPa. For the same compound, the “vapor or sublimation pressure” value ([1]; 463.61 K, Liquid) was 101.33 ± 0.05 kPa, the “vapor or sublimation pressure” value ([1]; 471.19 K, Liquid) was 120.79 ± 0.06 kPa and the “vapor or sublimation pressure” value ([1]; 478.83 K, Liquid) was 143.25 ± 0.07 kPa. For the same compound, the “vapor or sublimation pressure” value ([1]; 486.53 K, Liquid) was 169.02 ± 0.07 kPa, the “vapor or sublimation pressure” value ([1]; 494.28 K, Liquid) was 198.49 ± 0.08 kPa and the “vapor or sublimation pressure” value ([1]; 502.09 K, Liquid) was 232.02 ± 0.09 kPa. For the same compound, the “vapor or sublimation pressure” value ([1]; 509.97 K, Liquid) was 270.02 ± 0.1 kPa, the mass density ([1]; 662.5 K, Gas) was 114.4 ± 11 kg/m3 and the mass density ([1]; 682.8 K, Gas) was 171.2 ± 17 kg/m3. For the same compound, the mass density ([1]; 685.1 K, Liquid) was 366 ± 37 kg/m3, the mass density ([1]; 687.3 K, Liquid) was 347.2 ± 35 kg/m3 and the mass density ([1]; 689.6 K, Liquid) was 311 ± 31 kg/m3. For the same compound, the mass density ([1]; 689.8 K, Gas) was 244.4 ± 24 kg/m3, the Triple point temperature ([1]; Crystal 1) was 237.82 ± 0.05 K and the Triple point temperature ([1]; Crystal 2) was 171.5 ± 3 K. The Triple point temperature ([1]; Crystal 3) was 128.4 ± 3 K, the Critical temperature ([1]; Liquid, DTA) was 690 ± 2 K and the “Molar enthalpy of transition or fusion” value ([2]; Crystal 1) was 3.202 ± 0.00335 kcal/mol. For the same compound, the “Molar enthalpy of transition or fusion” value ([2]; Crystal 2) was 0.06142 ± 0.000478 kcal/mol, the molar heat capacity ([3]; 10 K) was 2.73 ± 0.04 J/K/mol and the molar heat capacity ([3]; 11.5 K) was 4.08 ± 0.04 J/K/mol. It also gave a molar heat capacity ([3]; 11.8 K) of 4.35 ± 0.05 J/K/mol, a molar heat capacity ([3]; 13.17 K) of 5.8 ± 0.06 J/K/mol and a molar heat capacity ([3]; 13.37 K) of 6.03 ± 0.06 J/K/mol. For the same compound, the molar heat capacity ([3]; 14.83 K) was 7.75 ± 0.07 J/K/mol, the molar heat capacity ([3]; 14.99 K) was 7.95 ± 0.07 J/K/mol and the molar heat capacity ([3]; 16.64 K) was 10.09 ± 0.07 J/K/mol. For the same compound, the molar heat capacity ([3]; 16.69 K) was 10.19 ± 0.083 J/K/mol, the molar heat capacity ([3]; 18.46 K) was 12.62 ± 0.091 J/K/mol and the molar heat capacity ([3]; 18.63 K) was 12.87 ± 0.091 J/K/mol. It also gave a molar heat capacity ([3]; 20 K) of 14.82 ± 0.1 J/K/mol, a molar heat capacity ([3]; 20.51 K) of 15.56 ± 0.1 J/K/mol and a molar heat capacity ([3]; 20.71 K) of 15.86 ± 0.1 J/K/mol. For the same compound, the molar heat capacity ([3]; 22.72 K) was 18.82 ± 0.11 J/K/mol, the molar heat capacity ([3]; 22.99 K) was 19.31 ± 0.11 J/K/mol and the molar heat capacity ([3]; 25.1 K) was 22.6 ± 0.12 J/K/mol. The molar heat capacity ([3]; 25.32 K) was 22.88 ± 0.12 J/K/mol, the molar heat capacity ([3]; 27.67 K) was 26.42 ± 0.12 J/K/mol and the molar heat capacity ([3]; 30 K) was 29.89 ± 0.11 J/K/mol. For the same compound, the molar heat capacity ([3]; 30.51 K) was 30.65 ± 0.11 J/K/mol, the molar heat capacity ([3]; 33.62 K) was 35.24 ± 0.12 J/K/mol and the molar heat capacity ([3]; 37.09 K) was 40.13 ± 0.12 J/K/mol. For the same compound, the molar heat capacity ([3]; 40 K) was 44.07 ± 0.13 J/K/mol, the molar heat capacity ([3]; 40.84 K) was 45.17 ± 0.13 J/K/mol and the molar heat capacity ([3]; 44.81 K) was 49.8 ± 0.14 J/K/mol. It also gave a molar heat capacity ([3]; 49.26 K) of 55.04 ± 0.15 J/K/mol, a molar heat capacity ([3]; 50 K) of 55.91 ± 0.15 J/K/mol and a molar heat capacity ([3]; 54.23 K) of 60.6 ± 0.17 J/K/mol. It also gave a molar heat capacity ([3]; 54.24 K) of 60.62 ± 0.17 J/K/mol, a molar heat capacity ([3]; 59.45 K) of 65.6 ± 0.17 J/K/mol and a molar heat capacity ([3]; 60 K) of 66.15 ± 0.17 J/K/mol. The molar heat capacity ([3]; 65.02 K) was 70.77 ± 0.18 J/K/mol, the molar heat capacity ([3]; 70 K) was 74.88 ± 0.19 J/K/mol and the molar heat capacity ([3]; 71.12 K) was 75.75 ± 0.19 J/K/mol. The molar heat capacity ([3]; 77.81 K) was 80.69 ± 0.2 J/K/mol, the molar heat capacity ([3]; 80 K) was 82.21 ± 0.21 J/K/mol and the molar heat capacity ([3]; 84.9 K) was 85.44 ± 0.21 J/K/mol. It also gave a molar heat capacity ([3]; 90 K) of 88.7 ± 0.29 J/K/mol, a molar heat capacity ([3]; 90.4 K) of 88.97 ± 0.29 J/K/mol and a molar heat capacity ([3]; 92.15 K) of 90 ± 0.29 J/K/mol. The molar heat capacity ([3]; 95.17 K) was 91.72 ± 0.29 J/K/mol, the molar heat capacity ([3]; 97.64 K) was 93.21 ± 0.29 J/K/mol and the molar heat capacity ([3]; 100 K) was 94.56 ± 0.29 J/K/mol. It also gave a molar heat capacity ([3]; 102.4 K) of 95.85 ± 0.3 J/K/mol, a molar heat capacity ([3]; 105.1 K) of 97.46 ± 0.3 J/K/mol and a molar heat capacity ([3]; 110 K) of 100.28 ± 0.3 J/K/mol. The molar heat capacity ([3]; 112.84 K) was 102.05 ± 0.3 J/K/mol, the molar heat capacity ([3]; 116.54 K) was 104.26 ± 0.31 J/K/mol and the molar heat capacity ([3]; 118.13 K) was 105.18 ± 0.31 J/K/mol. It also gave a molar heat capacity ([3]; 118.17 K) of 105.56 ± 0.31 J/K/mol and a molar heat capacity ([3]; 120 K) of 106.6 ± 0.31 J/K/mol.
